Measured values as given in patent publication US20160008297A1, “COMPOUNDS FOR PREVENTING, REDUCING AND/OR ALLEVIATING ITCHY SKIN CONDITION(S)” (B.R.A.I.N. Biotechnology Research And Information Network AG, priority 2012, published 2016).

What follows are compounds tested against T1, PAR-2 (Homo sapiens, UniProt P55085) (assay: Cell-based calcium assay (Fluo-4 AM) for PAR-2 antagonists, SLIGRL-evoked signal). Conditions: in the presence of 2 μM SLIGRL, HEK293 cells; read-out: IC50 of PAR-2 antagonism (inhibition of SLIGRL induced PAR-2 activation).
T1 construct: Human embryonic kidney 293 cells (HEK293) endogenously expressing PAR-2; endogenous in cells; host or cells: HEK293
T1 sequence (P55085 26-397): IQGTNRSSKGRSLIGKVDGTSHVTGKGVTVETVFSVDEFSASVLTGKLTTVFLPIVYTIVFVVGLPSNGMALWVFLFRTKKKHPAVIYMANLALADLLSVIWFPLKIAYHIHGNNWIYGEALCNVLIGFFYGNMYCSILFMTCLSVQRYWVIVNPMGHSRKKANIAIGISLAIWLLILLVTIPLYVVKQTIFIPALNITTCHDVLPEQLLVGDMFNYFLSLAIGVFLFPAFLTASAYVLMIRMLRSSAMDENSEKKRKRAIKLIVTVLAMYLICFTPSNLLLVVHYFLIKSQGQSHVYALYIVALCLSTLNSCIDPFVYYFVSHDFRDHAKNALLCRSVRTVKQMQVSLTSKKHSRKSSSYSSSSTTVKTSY
Experimental: Cell-based calcium assay for the identification of PAR-2 antagonists based on fluorescent dye Fluo4-AM
Functional modulation of PAR-2 by the tested compounds was measured and quantified using the calcium sensitive fluorescent probe Fluo-4 AM on a fluorescence microplate reader. Activation of PAR-2 by an agonist (SLIGRL) led to an increase in the intracellular calcium concentration and thus an increase in fluorescence intensity.
Human embryonic kidney 293 cells (HEK293) endogenously expressing PAR-2 were cultured in DMEM (high glucose) supplemented with tetracycline-free FCS (10% v/v), L-glutamine (4 mM), blasticidin (15 μg/ml), zeocin (100 μg/ml) and puromycin (2 μg/ml) in a water-saturated atmosphere at 37° C. and 5% CO2.
Cells were seeded onto 96-well clear-bottom black-walled assay plates at a density of 45,000 cells per well in 100 μl of cell culture medium. Intracellular calcium increase in the living cells due to receptor activation was monitored 24 h later using the calcium sensitive fluorescent probe Fluo-4 AM on a fluorescence microplate reader (FlexStation® system, Molecular Devices). Therefore 100 μl Krebs-HEPES (KH) buffer (118 mM NaCl; 4.7 mM KCl; 1.3 mM CaCl2; 1.2 mM MgSO4; 1.2 mM KH2PO4; 4.2 mM NaHCO3; 10 mM Hepes, pH 7.4) supplemented with sulfinpyrazone (250 μM) and Fluo-4 AM (4 μM) were added and the cells were incubated for an additional hour in a water-saturated atmosphere at 37° C. and 5% CO2.
Medium was replaced with 150 μl KH buffer supplemented with sulfinpyrazone (250 μM). Subsequently, 50 μl KH buffer supplemented with the screening compounds (final concentration of 10 μM under measurement conditions) or control substances were added and the cells were incubated for 10 min. under assay conditions in the microplate reader. Changes in fluorescence were recorded at 37° C. after addition of 50 μl KH buffer supplemented with the PAR-2 peptide agonist SLIGRL (final concentration of 2 μM under measurement conditions).
Calcium mobilization was quantified as the change of peak fluorescence (ΔF) over the baseline level (F). The data was analyzed with the software of the microplate reader. Potential PAR-2 antagonists were tested in an effective range of 1-100 μM for their capacity to reduce the SLIGRL-evoked signal.
A cellular in vitro assay was developed with human embryonic kidney 293 cells (HEK293) endogenously expressing PAR-2. The PAR-2 activating peptide SLIGRL (EC50: ˜0.6 μM) was used as an agonistic stimulus with subsequent Fluo-4 dependent intracellular calcium detection (calcium imaging).

SMILES	IC50 [µM]
COc1ccc(CCC(=O)CC(=O)CCc2ccc(OC)cc2)cc1 [formula 3, 1,7-Bis-(4-methoxyphenyl)-3,5-heptanedione]	67.8
COc1cc(CCC(=O)CC(=O)CCc2ccc(O)c(OC)c2)ccc1O [formula 4, 1,7-Bis-(4-hydroxy-3-methoxyphenyl)-3,5-heptanedione]	25 to 100
COc1ccc(/C=C/C(=O)CC(=O)/C=C/c2ccc(OC)cc2)cc1 [formula 7, 1,7-Bis-(4-methoxyphenyl)-hepta-1,6-dien-3,5-dione]	25 to 100
COc1cc(/C=C/C(=O)CC(=O)/C=C/c2ccc(O)c(OC)c2)ccc1O [formula 8, 1,7-Bis-(4-hydroxy-3-methoxyphenyl)-hepta-1,6-dien-3,5-dione]	25 to 100
